According to patent US20080009540A1, “Amorphous Atorvastatin Calcium” (priority 2004, published 2008):
Structures can show the parent of a compound that is named as a salt.

Experiments:
Type in all cases: physicochemical
[1] = Storage stability of amorphous atorvastatin calcium, Example 6 packaging (6 percent w/w water; nitrogen, silica gel)
Text: The following packaging procedure was followed: 1) amorphous atorvastatin calcium having a 6 percent w/w water content was initially packed in a polyethylene bag, which was then tied; 2) the tied polyethylene bag was placed in a black polyethylene bag with a silica gel pouch under a nitrogen atmosphere and then sealed; 3) the sealed black polyethylene bag was placed in a triple laminated bag along with a silica gel pouch, was purged with nitrogen, and sealed; and 4) the sealed laminated bag was stored in a HDPE drum.
table, where water was determined by the Karl Fischer method, and total organic impurities are expressed as area-percent, as determined by high performance liquid chromatography.

[2] = Storage stability of amorphous atorvastatin calcium, Example 7 packaging (2 percent w/w moisture; nitrogen, silica gel, oxygen absorbent)
Text: The following packaging procedure was followed: 1) amorphous atorvastatin calcium having a 2 percent w/w moisture content was placed in a white polyethylene bag, the bag was purged with nitrogen, and then the bag was tied; 2) the tied white polyethylene bag was placed into a black polyethylene bag, along with a silica gel pouch and a bag of oxygen absorbent, then the black bag was purged with nitrogen and sealed; 3) the sealed black polyethylene bag was placed into a triple laminated bag along with a silica gel pouch, and then the laminated bag was purged with nitrogen and sealed; and 4) the sealed laminated bag was stored in a HDPE drum.

[3] = Storage stability of commercial-sized batch of amorphous atorvastatin calcium, Example 8 packaging
Text: A commercial-sized batch of amorphous atorvastatin calcium was packaged as follows:
a) amorphous atorvastatin calcium having a 6 percent w/w water content was initially placed into a clear polyethylene bag, air was removed, and the clear polyethylene bag was tied;
b) the tied clear polyethylene bag was placed into a black polyethylene bag along with a silica gel pouch and a package of oxygen absorbent, and then the black polyethylene bag was purged with nitrogen and sealed; and
c) the sealed black polyethylene bag was placed in a triple laminated bag along with a silica gel pouch, then the laminated bag was purged with nitrogen and sealed.

[4] = 25° C. and 60% relative humidity, 2 Months
[5] = 25° C. and 60% relative humidity, 45 Days
[6] = 25° C. and 60% relative humidity, Initial
[7] = 40° C. and 75% relative humidity, 2 Months
[8] = 40° C. and 75% relative humidity, 45 Days
[9] = all three storage conditions, up to 2 Months
[10] = 25° C. and 60% relative humidity, 1 Month
[11] = 40° C. and 75% relative humidity, 1 Month
[12] = 40° C. and 75% relative humidity, 15 Days
[13] = 40° C. and 75% relative humidity, Initial
[14] = 25° C. and 60% relative humidity, 2 Month
[15] = 25° C. and 60% relative humidity, 3 Month
[16] = 40° C. and 75% relative humidity, 2 Month
[17] = 40° C. and 75% relative humidity, 3 Month

Q: Which results are given for `CC(C)c1c(C(=O)Nc2ccccc2)c(-c2ccccc2)c(-c2ccc(F)cc2)n1CC[C@@H](O)C[C@@H](O)CC(=O)O` (relative stereo) [amorphous atorvastatin calcium, [R-(R*,R*)]-2-(4-fluorophenyl)-β,δ-dihydroxy-5-(1-methylethyl)-3-phenyl-4-[(phenylamino)carbonyl]-1H-pyrrole-1-heptanoic acid, calcium salt (2:1)]?
A: Total Impurities ([1]; 2 to 8° C., 2 Months): 0.47 area-percent; Wt. Percent H2O ([1]; 2 to 8° C., 2 Months): 4.80 Wt. Percent; Total Impurities ([1]; 2 to 8° C., 45 Days): 0.46 area-percent; Wt. Percent H2O ([1]; 2 to 8° C., 45 Days): 4.50 Wt. Percent; Total Impurities ([1]; 2 to 8° C., Initial): 0.37 area-percent; Wt. Percent H2O ([1]; 2 to 8° C., Initial): 6.00 Wt. Percent; Total Impurities [1, 4]: 0.49 area-percent; Wt. Percent H2O [1, 4]: 3.97 Wt. Percent; Total Impurities [1, 5]: 0.51 area-percent; Wt. Percent H2O [1, 5]: 3.70 Wt. Percent; Total Impurities [1, 6]: 0.37 area-percent; Wt. Percent H2O [1, 6]: 6.00 Wt. Percent; Total Impurities [1, 7]: 0.50 area-percent; Wt. Percent H2O [1, 7]: 3.47 Wt. Percent; Total Impurities [1, 8]: 0.61 area-percent; Wt. Percent H2O [1, 8]: 3.49 Wt. Percent; Total Impurities ([1]; 40° C. and 75% relative humidity, Initial, HPLC): 0.37 area-percent; Wt. Percent H2O ([1]; 40° C. and 75% relative humidity, Initial, Karl Fischer): 6.00 Wt. Percent; Change during the storage periods [1, 9]: did not change appreciably; Total Impurities ([2]; 2 to 8° C., 1 Month): 0.27 area-percent; Wt. Percent H2O ([2]; 2 to 8° C., 1 Month): 2.3 Wt. Percent; Total Impurities ([2]; 2 to 8° C., 2 Months): 0.30 area-percent; Wt. Percent H2O ([2]; 2 to 8° C., 2 Months): 2.6 Wt. Percent; Total Impurities ([2]; 2 to 8° C., Initial): 0.29 area-percent; Wt. Percent H2O ([2]; 2 to 8° C., Initial): 2.0 Wt. Percent; Total Impurities [2, 10]: 0.34 area-percent; Wt. Percent H2O [2, 10]: 2.4 Wt. Percent; Total Impurities [2, 4]: 0.38 area-percent; Wt. Percent H2O [2, 4]: 2.9 Wt. Percent; Total Impurities [2, 6]: 0.29 area-percent; Wt. Percent H2O [2, 6]: 2.0 Wt. Percent; Total Impurities [2, 11]: 0.41 area-percent; Wt. Percent H2O [2, 11]: 3.4 Wt. Percent; Total Impurities [2, 7]: 0.40 area-percent; Wt. Percent H2O [2, 7]: 3.2 Wt. Percent; Total Impurities [2, 12]: 0.34 area-percent; Wt. Percent H2O [2, 12]: 3.1 Wt. Percent; Total Impurities [2, 8]: 0.34 area-percent; Wt. Percent H2O [2, 8]: 3.2 Wt. Percent; Total Impurities [2, 13]: 0.29 area-percent; Wt. Percent H2O [2, 13]: 2.0 Wt. Percent; Change during the storage periods [2, 9]: did not change appreciably; Total Impurities ([3]; 2 to 8° C., 1 Month): 0.37 area-percent; Wt. Percent H2O ([3]; 2 to 8° C., 1 Month): 5.4 Wt. Percent; Total Impurities ([3]; 2 to 8° C., 2 Month): 0.36 area-percent; Wt. Percent H2O ([3]; 2 to 8° C., 2 Month): 5.3 Wt. Percent; Total Impurities ([3]; 2 to 8° C., 3 Month): 0.34 area-percent; Wt. Percent H2O ([3]; 2 to 8° C., 3 Month): 5.4 Wt. Percent; Total Impurities ([3]; 2 to 8° C., Initial): 0.35 area-percent; Wt. Percent H2O ([3]; 2 to 8° C., Initial): 5.4 Wt. Percent; Total Impurities [3, 10]: 0.41 area-percent; Wt. Percent H2O [3, 10]: 4.6 Wt. Percent; Total Impurities [3, 14]: 0.42 area-percent; Wt. Percent H2O [3, 14]: 4.8 Wt. Percent; Total Impurities [3, 15]: 0.40 area-percent; Wt. Percent H2O [3, 15]: 4.9 Wt. Percent; Total Impurities [3, 6]: 0.35 area-percent; Wt. Percent H2O [3, 6]: 5.4 Wt. Percent; Total Impurities [3, 11]: 0.45 area-percent; Wt. Percent H2O [3, 11]: 4.3 Wt. Percent; Total Impurities [3, 16]: 0.47 area-percent; Wt. Percent H2O [3, 16]: 4.5 Wt. Percent; Total Impurities [3, 17]: 0.48 area-percent; Wt. Percent H2O [3, 17]: 5.0 Wt. Percent; Total Impurities [3, 12]: 0.39 area-percent; Wt. Percent H2O [3, 12]: 4.8 Wt. Percent; Total Impurities [3, 8]: 0.45 area-percent; Wt. Percent H2O [3, 8]: 4.3 Wt. Percent; Total Impurities [3, 13]: 0.35 area-percent; Wt. Percent H2O [3, 13]: 5.4 Wt. Percent; Change during the storage periods ([3]; all three storage conditions, up to 3 Month): did not change appreciably
